Experimental data published in publication PMC3231940, “Disposition, metabolism and mass balance of [^14C]apremilast following oral administration” (Xenobiotica; the Fate of Foreign Compounds in Biological …, 2011).
Where “and” joins values, the source holds several entries; their conditions need not be identical. Identical values can stand only once.

Experiment: Metabolite profiling by HPLC radiochromatography in plasma, urine and faeces
Format: in vivo, human
Method: Individual plasma samples collected from all subjects at 0.5, 1, 2.5, 8, 24, 36 and 48 h post-dose were analysed for metabolite profiling. A pooled sample (equal volume from 0.5,1,2.5,8 and 24 h) from subject 1 was also used for metabolite profiling. Three volumes of acetonitrile were added to each sample, followed by mixing and centrifu-gation. The supernatant was removed and the pellet was washed twice with acetonitrile. The combined superna-tants were evaporated to dryness under a stream of nitrogen. The residues were re-suspended in acetonitrile: 1% formic acid in water (1:1), assayed for extraction recovery and analysed for metabolite profiling.
For each subject, urine samples were pooled using an equal percentage by volume of the 0-4, 4-8, 8-12 and 12-24-h samples. The 24-48-h urine sample from each subject and a pool of the 0-168-h urine samples from subject 1 were also analysed for metabolite profiling. Samples were mixed and centrifuged prior to the supernatants being transferred to fresh tubes for metabolite profiling analysis.
Faecal homogenates for metabolite profiling were pooled using an equal percentage by weight to generate two pools (0-48 h and 48-96 h) for each subject. An additional pool (0-168 h) was prepared using the samples collected from subject 1. An aliquot (approximately 6 g) of each pool was extracted with three volumes of acetonitrile; samples were mixed and centrifuged. The supernatant was removed and the pellets were extracted twice with an additional 12 mL of acetonitrile each time. The combined supernatants were evaporated to dryness under a stream of nitrogen and the residue was re-suspended in a small volume (approximately 400 μL) of acetonitrile: 1% formic acid in water (1:1). Samples were assayed for extraction recovery prior to metabolite profiling.
HPLC analysis for metabolite profiling was performed using a Shimadzu LC-10ADVP (Shimadzu Corp., Columbia, MD) or a Waters 2695 Alliance Separation Module (Waters Corp., Milford, MA) with the autosampler set to an ambient temperature of approximately 22°C. ASPD-10A VPUV-Vis Detector or a Waters 996 Photodiode array detector set to 254 nm was used to detect UV absorbance. [^14C]Apremilast and metabolites were separated using a Phenomenex Luna C 18(2) column (150 × 4.6 mm, 3 μm; Phenomenex, Torrance, CA) equipped with a RP-18 guard column (15×3.2 mm, 7 μm) or using an ACE 3 C18 column (150 × 4.6 mm, 3 μm; Advanced Chromatography Technologies, Aberdeen, Scotland) equipped with an ACE 3 guard column (10×3mm, 3 μm). The mobile phases used were 0.4% formic acid in water; pH 3.2 with ammonium hydroxide (mobile phase A) and acetonitrile (mobile phase B). The column temperature was 30°C and the flow rate was 0.7mL/min. The linear gradient was delivered as follows: 0-5 min to 100% A; 5-20 min to 85% A; 20-30 min hold at 85% A; 30-50 min to 65% A; 50-60 min to 60% A; 60-70 min to 50% A; 70-75 min to 0% A; hold at 0% A until 80 min; return to initial conditions over 2 min.
Radioactivity profiles for excreta were determined by radiochromatography using liquid chromatography-accurate radioisotope counting stop-flow system (LC-ARC; AIM Research Company, Wilmington, DE). Radioactivity was detected using a β-Ram Radioflow detector (IN/US Systems, Brandon, FL) equipped with a 1300-μL liquid cell. Liquid scintillation cocktail and column eluate were mixed at a ratio of 2.5:1. Radioactive peaks were quantified using LC-ARC data handling software. Plasma radioactivity profiles were determined by collecting the column eluate into 96-well Deepwell LumaPlates at a rate of 0.25 min/fraction. The plates were dried and the radioactivity in each well determined using a PerkinElmer TopCount NXT Microplate Scintillation Counter. HPLC radiochromatograms were reconstructed using LC-ARC data handling software.
Pharmacokinetic data were generated by non-compartmental analysis of plasma or whole blood versus time profiles using WinNonlin (version 4.1, Enterprise Edition). […]

[1] = radiochromatography, single oral 20-mg dose, mean ± SD

Plasma (% AUC relative to TRA); share of circulating radioactivity (AUC0-t (unchanged drug or metabolite)/AUC0-48 (TRA) * 100%): 45% and 44.8%
Plasma exposure (AUC) relative to total radioactivity (based on radiochromatography): approximately 40%
% of dose excreted, faeces (faeces collected up to 96-h post-dose): 4 % of dose and 4.1 % of dose
half-life (human, plasma, radiochromatography, single oral 20-mg dose, mean ± SD, read-out: Plasma t½ (converted)): 7.1 ± 2.7 h
Tmax (male, human, plasma, radiochromatography, single oral 20-mg dose, median and range): 1.8 h
Plasma Cmax (plasma radioactivity concentrations and radiochromatography, single oral 20-mg dose, mean ± SD): 321±134 ngEq/mL
Plasma AUC0-t [1]: 2455±690 ngEq*h/mL
Plasma AUC0-∞ [1]: 2636±705 ngEq*h/mL
% of dose excreted, urine (urine collected up to 48-h post-dose): 2.8 % of dose
SMILES: CCOc1cc([C@@H](CS(C)(=O)=O)N2C(=O)c3cccc(NC(C)=O)c3C2=O)ccc1OC [Apremilast, (+)-N-[2-[(lS)-1-(3-ethoxy-4-methoxyphenyl)-2-(methylsulfonyl)ethyl]-1,3-dioxo-2,3-dihydro-lH-isoindol-4-yl]acetamide]
